# Results: ChEMBL document CHEMBL1201862, “PubChem BioAssay data set” (2004)
# Calls of active or inactive are those of the source.
# Key:
# Cytochrome P450 2C19 = Cytochrome P450 2C19 (Homo sapiens, UniProt P33261); assay: Cytochrome panel assay with activity outcomes. Panel member name: p450-cyp2c19 Compounds with AC50 equal or less than 10 uM are considered active; type: functional
# Cytochrome P450 3A4 = Cytochrome P450 3A4 (Homo sapiens, UniProt P08684);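 note: CYP3A4 tested as one member of a cytochrome P450 panel screen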
# Chain of Cytochrome P450 3A4 (P08684 whole entry): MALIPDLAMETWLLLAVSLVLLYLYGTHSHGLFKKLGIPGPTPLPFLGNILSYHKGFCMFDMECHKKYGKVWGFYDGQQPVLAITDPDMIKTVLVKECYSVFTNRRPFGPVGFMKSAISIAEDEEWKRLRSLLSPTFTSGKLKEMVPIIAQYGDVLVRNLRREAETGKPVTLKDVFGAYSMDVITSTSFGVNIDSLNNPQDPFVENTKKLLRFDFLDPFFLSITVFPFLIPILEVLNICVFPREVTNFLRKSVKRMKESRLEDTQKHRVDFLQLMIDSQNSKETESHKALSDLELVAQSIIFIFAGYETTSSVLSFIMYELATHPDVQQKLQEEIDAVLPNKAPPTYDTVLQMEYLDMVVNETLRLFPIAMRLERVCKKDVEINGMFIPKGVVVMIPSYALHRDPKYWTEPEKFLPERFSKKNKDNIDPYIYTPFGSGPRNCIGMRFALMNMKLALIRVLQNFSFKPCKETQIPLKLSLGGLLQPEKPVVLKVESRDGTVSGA
# Cytochrome P450 1A2 = target: T1, Cytochrome P450 1A2 (Homo sapiens, UniProt P05177);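 note: PubChem cytochrome P450 panel assay, CYP1A2 panel member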
# T1 sequence (P05177 whole entry): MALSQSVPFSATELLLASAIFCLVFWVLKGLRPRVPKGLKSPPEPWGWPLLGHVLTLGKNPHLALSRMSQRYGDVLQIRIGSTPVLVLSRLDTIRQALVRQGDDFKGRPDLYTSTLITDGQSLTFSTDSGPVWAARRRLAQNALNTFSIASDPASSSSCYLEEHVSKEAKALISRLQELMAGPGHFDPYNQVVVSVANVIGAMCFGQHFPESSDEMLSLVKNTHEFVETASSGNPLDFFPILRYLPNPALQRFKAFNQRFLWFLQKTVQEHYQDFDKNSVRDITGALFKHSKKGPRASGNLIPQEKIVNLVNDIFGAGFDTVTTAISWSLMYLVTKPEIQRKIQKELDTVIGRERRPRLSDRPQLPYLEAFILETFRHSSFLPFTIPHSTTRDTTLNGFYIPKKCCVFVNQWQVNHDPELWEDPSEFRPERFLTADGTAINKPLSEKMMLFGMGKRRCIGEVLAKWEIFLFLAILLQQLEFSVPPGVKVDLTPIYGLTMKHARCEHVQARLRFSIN
# [1] = alpha-synuclein stem-loop luciferase translation blockers – H4 neuroglioma cells, luminescence, confirmation (AID 1988); type: functional, cell-based
# [2] = luciferase reporter signal suppression in cells – H4 neuroglioma cells, luminescence, dose response (AID 1990); type: functional, cell-based
# [3] = Luminescence Cell-Based Dose Response HTS to Identify Inhibitors of 5'UTR Stem-Loop Driven Prion Protein mRNA Translation in H4 Neuroglioblastoma Cells. [Related pubchem assays: 1827 (Project Summary), 1813 (Primary HTS)]; type: functional
# [4] = target: T2, Rac GTPase-activating protein 1 (Homo sapiens, UniProt Q9H0H5); assay: blockers of MgcRacGAP-driven Rac1 GTP hydrolysis – biochemical, ADP Hunter fluorescence, primary and confirmatory, confirmation (AID 624330); type: functional
# T2 sequence (Q9H0H5 whole entry): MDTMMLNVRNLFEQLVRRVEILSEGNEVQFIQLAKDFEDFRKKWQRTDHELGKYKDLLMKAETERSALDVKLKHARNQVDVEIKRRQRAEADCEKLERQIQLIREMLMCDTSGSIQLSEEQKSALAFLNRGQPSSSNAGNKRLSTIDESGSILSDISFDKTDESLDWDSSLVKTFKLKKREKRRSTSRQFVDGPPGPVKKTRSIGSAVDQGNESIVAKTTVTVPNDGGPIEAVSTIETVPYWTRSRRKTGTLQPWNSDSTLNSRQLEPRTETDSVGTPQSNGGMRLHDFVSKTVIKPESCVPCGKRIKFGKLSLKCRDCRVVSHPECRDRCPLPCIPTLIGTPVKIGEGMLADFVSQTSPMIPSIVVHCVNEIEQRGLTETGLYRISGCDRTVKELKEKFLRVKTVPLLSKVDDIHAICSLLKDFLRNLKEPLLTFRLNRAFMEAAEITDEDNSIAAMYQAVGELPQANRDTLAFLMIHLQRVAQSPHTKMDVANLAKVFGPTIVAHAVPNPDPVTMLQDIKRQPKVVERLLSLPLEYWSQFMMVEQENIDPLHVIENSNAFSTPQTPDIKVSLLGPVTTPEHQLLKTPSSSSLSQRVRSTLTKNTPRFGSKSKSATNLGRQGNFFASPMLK
# Cytochrome P450 2C9 = Cytochrome P450 2C9 (Homo sapiens, UniProt P11712)
# Chain of Cytochrome P450 2C9 (P11712 whole entry): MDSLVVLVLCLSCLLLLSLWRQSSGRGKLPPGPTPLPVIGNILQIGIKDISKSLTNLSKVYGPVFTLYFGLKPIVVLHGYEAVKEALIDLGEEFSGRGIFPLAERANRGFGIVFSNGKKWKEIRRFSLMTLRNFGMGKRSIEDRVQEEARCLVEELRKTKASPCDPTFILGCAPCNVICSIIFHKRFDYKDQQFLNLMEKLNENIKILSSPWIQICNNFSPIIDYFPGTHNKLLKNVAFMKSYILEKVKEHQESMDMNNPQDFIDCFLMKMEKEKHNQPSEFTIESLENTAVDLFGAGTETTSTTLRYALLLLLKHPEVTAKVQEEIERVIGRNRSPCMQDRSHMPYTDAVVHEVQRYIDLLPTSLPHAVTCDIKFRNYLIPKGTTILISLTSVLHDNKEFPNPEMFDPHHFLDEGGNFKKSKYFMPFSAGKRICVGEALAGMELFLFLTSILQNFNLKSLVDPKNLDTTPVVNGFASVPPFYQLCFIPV
# cells = type: functional
# [5] = target: T3, Corticotropin-releasing factor receptor 2/Corticotropin-releasing factor-binding protein (Homo sapiens, UniProt P24387+Q13324); assay: activators of CRF receptor 2 with binding protein – uHTS hits, confirmation (AID 602473); type: functional; conditions: read-out: EC50_Mean
# T3 sequence (Q13324 whole entry): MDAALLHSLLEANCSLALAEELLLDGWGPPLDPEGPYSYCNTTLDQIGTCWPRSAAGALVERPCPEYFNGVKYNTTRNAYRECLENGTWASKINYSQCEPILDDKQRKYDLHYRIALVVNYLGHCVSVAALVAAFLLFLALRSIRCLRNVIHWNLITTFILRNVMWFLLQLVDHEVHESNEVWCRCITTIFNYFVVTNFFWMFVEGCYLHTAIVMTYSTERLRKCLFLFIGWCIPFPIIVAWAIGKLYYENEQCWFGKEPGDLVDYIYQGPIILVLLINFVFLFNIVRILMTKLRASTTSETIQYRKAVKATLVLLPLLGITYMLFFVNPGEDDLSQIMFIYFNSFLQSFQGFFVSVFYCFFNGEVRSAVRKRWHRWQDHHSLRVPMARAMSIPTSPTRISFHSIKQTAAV
# T3 sequence (P24387 whole entry): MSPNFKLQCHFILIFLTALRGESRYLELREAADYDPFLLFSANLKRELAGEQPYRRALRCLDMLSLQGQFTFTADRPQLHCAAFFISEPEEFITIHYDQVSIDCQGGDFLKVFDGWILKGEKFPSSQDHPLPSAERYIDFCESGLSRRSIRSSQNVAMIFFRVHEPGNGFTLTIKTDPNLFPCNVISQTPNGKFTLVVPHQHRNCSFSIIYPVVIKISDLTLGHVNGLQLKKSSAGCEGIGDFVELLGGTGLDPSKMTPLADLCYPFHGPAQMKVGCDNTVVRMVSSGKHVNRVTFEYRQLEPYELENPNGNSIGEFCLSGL
# Cytochrome P450 2D6 = Cytochrome P450 2D6 (Homo sapiens, UniProt P10635);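 note: CYP2D6 member of a cytochrome P450 panel assay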
# Chain of Cytochrome P450 2D6 (P10635 whole entry): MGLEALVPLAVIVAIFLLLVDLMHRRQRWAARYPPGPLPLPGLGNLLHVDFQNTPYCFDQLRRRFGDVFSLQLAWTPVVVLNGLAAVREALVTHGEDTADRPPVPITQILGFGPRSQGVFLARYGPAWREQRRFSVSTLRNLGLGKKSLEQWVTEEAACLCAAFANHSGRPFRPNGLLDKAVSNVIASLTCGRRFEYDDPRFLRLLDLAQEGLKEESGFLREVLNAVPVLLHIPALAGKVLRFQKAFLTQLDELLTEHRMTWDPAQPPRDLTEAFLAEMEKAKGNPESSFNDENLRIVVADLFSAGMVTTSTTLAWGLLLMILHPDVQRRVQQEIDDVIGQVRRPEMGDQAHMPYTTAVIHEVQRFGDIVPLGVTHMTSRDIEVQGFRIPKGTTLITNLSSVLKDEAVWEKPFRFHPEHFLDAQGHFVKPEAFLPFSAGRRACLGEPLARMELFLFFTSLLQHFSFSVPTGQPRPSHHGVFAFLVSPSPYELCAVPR
# [6] = viability of uninfected HEp-2 cells – cell-based, HTS, cytotoxicity control for RSV inhibitor project, dose response (AID 2410); type: functional; conditions: human respiratory syncytial virus
# [7] = Luminescence Cell-Based Dose Retest to Confirm Inhibitors of Cancer Stem Cells. [Related pubchem assays (depositor defined):AID2717, AID2721]; type: functional; conditions: Homo sapiens
# INS1 = assay: INS-1E survival protection against cytokine death – cell-based, luminescence, retest, dose response (AID 449756); type: functional; conditions: Rattus norvegicus;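 note: cell death triggered by IL-1 beta plus TNF-alpha plus IFN-gamma mixture; protective hits raise ATP signal compared with cytokine alone wells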
# Chain of Cytochrome P450 2C19 (P33261 whole entry): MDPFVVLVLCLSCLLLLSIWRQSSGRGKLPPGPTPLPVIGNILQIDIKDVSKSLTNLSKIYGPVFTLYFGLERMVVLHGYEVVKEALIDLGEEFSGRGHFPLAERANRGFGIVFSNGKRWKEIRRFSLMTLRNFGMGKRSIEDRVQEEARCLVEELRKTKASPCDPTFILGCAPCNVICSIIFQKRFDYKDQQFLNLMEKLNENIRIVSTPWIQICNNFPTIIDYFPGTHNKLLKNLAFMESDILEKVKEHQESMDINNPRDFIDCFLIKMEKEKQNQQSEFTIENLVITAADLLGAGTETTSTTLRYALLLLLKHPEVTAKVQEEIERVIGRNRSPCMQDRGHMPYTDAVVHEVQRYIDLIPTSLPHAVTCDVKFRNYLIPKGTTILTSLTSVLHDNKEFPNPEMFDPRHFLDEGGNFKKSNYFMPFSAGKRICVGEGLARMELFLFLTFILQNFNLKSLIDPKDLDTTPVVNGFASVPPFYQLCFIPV
smiles,measurement,setting,value
CN(C)c1ncc2nc(-c3cc(F)cc(F)c3)c(=O)n(Cc3cccs3)c2n1,AC50,Cytochrome P450 2C19,inconclusive
same,AC50,Cytochrome P450 3A4,5.01 µM (inconclusive)
same,AC50,Cytochrome P450 1A2,1.58 µM (inconclusive)
CCOC(=O)C1CCCCN1C(=O)CCc1c(C)nc2ncnn2c1C (centres undefined),EC50,[1],14.8 µM (active)
same,EC50,[2],14.7 µM (active)
same,EC50,[3],> 120 µM (not active)
Cc1ccccc1OCCN1CCCC1,IC50,[4],176 µM (active)
CCCCNCCOCCOc1ccc(C)cc1[N+](=O)[O-],AC50,Cytochrome P450 2C19; read-out: AC50,39.8 µM (inconclusive)
same,AC50,Cytochrome P450 3A4,14.1 µM (inconclusive)
same,AC50,Cytochrome P450 2C9,3.16 µM (inconclusive)
Nc1nonc1-c1nc2ccccc2n1Cc1ccc(F)cc1Cl,AC50,Cytochrome P450 3A4,14.1 µM (inconclusive)
same,AC50,Cytochrome P450 2C9,3.55 µM (inconclusive)
O=c1cc(CN2CCN(c3ccc(F)cc3)CC2)c2cc3c(cc2o1)CCCC3,AC50,Cytochrome P450 3A4,14.1 µM (inconclusive)
Cc1cnc(CNc2nc(-c3ccc(C(=O)N(C)C)cc3)nc3ccccc23)cn1,AC50,Cytochrome P450 3A4,15.8 µM (inconclusive)
same,AC50,Cytochrome P450 1A2,25.1 µM (inconclusive)
N#C/C(=C\c1ccc(N2CCOCC2)o1)c1ccccc1,IC50,[4],47.1 µM (active)
Cc1ccc(CCNC(=O)C2CC(c3ccccc3[N+](=O)[O-])=NO2)cc1 (centres undefined),AC50,Cytochrome P450 3A4,1.12 µM (inconclusive)
same,AC50,Cytochrome P450 2C9,39.8 µM (inconclusive)
O=C(Nc1ccn(Cc2ccccc2)n1)c1ccc(F)cc1,IC50,cells,> 50 µM (active)
COc1ccc(-c2nc3c(c(=O)c4ccccc4n3C)c(=O)n2Cc2ccccc2)cc1,EC50,[5],> 53 µM (inactive)
S=C(CSc1ccccc1)Nc1cccc2ccccc12,AC50,Cytochrome P450 3A4,3.98 µM (inconclusive)
Cc1ccc(C(C)C)c(OCC(=O)OCc2c(C)noc2C)c1,IC50,cells,5.76 µM (active)
COC(=O)C/C=C\[C@@H](C)[C@@H](/C=N\O[C@@H]1O[C@H](COC(C)=O)[C@H](OC(C)=O)[C@H](OC(C)=O)[C@H]1OC(C)=O)OC,AC50,Cytochrome P450 2D6,3.98 µM (inconclusive)
same,AC50,Cytochrome P450 3A4,6.31 µM (inconclusive)
CC(=O)NNC(=O)c1csc(Cc2c(Cl)sc3ccc(Cl)cc23)n1,EC50,[1],10.3 µM (active)
same,EC50,[2],11.5 µM (active)
same,EC50,[3],> 120 µM (not active)
Cc1ccc(NCCC(=O)c2cccs2)cc1,IC50,cells,10.5 µM (active)
Cc1onc(-c2c(Cl)cccc2Cl)c1C(=O)Nc1nc(C(C)(C)C)cs1,CC50,[6],17 µM (active)
same,EC50,[1],12.2 µM (active)
same,EC50,[2],14.4 µM (active)
same,EC50,[3],16.7 µM (active)
Cc1oc(-c2ccccc2Cl)nc1C[S+]([O-])CC(=O)NCCc1ccccc1 (centres undefined),EC50,[1],> 120 µM (not active)
same,EC50,[2],> 120 µM (not active)
same,EC50,[3],> 120 µM (not active)
CN(C)c1ccc(NC(=O)CN2C(=O)c3ccccc3C2=O)cc1,IC50,[4],73.7 µM (active)
CCOc1cc(/C=C2\SC(N3CCCC(C)C3)=NC2=O)ccc1O (centres undefined),IC50,[4],26.9 µM (active)
Cc1ccc(N2C(=O)/C(=C\Nc3cc(C)on3)c3ccccc3C2=O)c(C)c1,EC50,[1],12.9 µM (active)
same,EC50,[2],> 120 µM (not active)
same,EC50,[3],19.6 µM (active)
COc1ccc(C2=CC(c3ccco3)n3ncnc3N2)cc1 (centres undefined),EC50,[5],4.53 µM (active)
CC1=CC(C)(C)N(S(=O)(=O)c2ccc(F)cc2)c2ccc(C)cc21,AC50,[7],1.42 µM (active)
CCC1OC23CCCCC2C(C#N)(C(=N)O3)C1(C#N)C#N (centres undefined),AC50,Cytochrome P450 3A4,25.1 µM (inconclusive)
same,AC50,Cytochrome P450 2C9,14.1 µM (inconclusive)
Cc1ccc(NC(=O)COCC(=O)Nc2ccc(C)cc2)cc1,IC50,cells,22.8 µM (active)
O=C(OCC(=O)N1CCCc2ccccc21)c1ccc(S(=O)(=O)C(F)F)cc1,IC50,cells,23.3 µM (active)
CN(C)C(=O)c1ccc(-c2nccc(NCc3ccccc3)n2)cc1,AC50,Cytochrome P450 2D6,39.8 µM (inconclusive)
same,AC50,Cytochrome P450 3A4,20 µM (inconclusive)
same,AC50,Cytochrome P450 1A2,15.8 µM (inconclusive)
COC(=O)c1ccc(N2CCN(CCNC(=O)Nc3ccc(OC)cc3)CC2)cc1,IC50,cells,22.5 µM (active)
Cc1nc(NCc2ccco2)c2c3c(sc2n1)CCC3,AC50,Cytochrome P450 2D6,25.1 µM (inconclusive)
same,AC50,Cytochrome P450 3A4,15.8 µM (inconclusive)
same,AC50,Cytochrome P450 2C9,12.6 µM (inconclusive)
COc1ccc(CNCC(=O)Nc2cc(OC)cc(OC)c2)cc1,IC50,[4],123 µM (active)
C[C@@H](CSc1ccc(Br)cc1)CN1CC[C@H](C(C)(C)C)CCC1=O,AC50,[7],0.315 µM (active)
Cc1ccc(-c2csc3ncnc(-n4cnc5ccccc54)c23)cc1,AC50,[7],2.81 µM (active)
C[C@@]12CC[C@@H]3c4ccc(O)cc4C[C@H](CCCCCCCCC[S+]([O-])CCCC(F)(F)C(F)(F)F)[C@H]3[C@@H]1CC[C@@H]2O (some centres undefined),AC50,Cytochrome P450 3A4,1 µM (inconclusive)
same,AC50,Cytochrome P450 1A2,31.6 µM (inconclusive)
COc1cc(OC)c(OC)cc1CN1CCN(Cc2ccc(SC)cc2)CC1,IC50,[4],66.9 µM (active)
Cc1ccc(-c2noc(CN3CCN(C(c4ccccc4)c4ccccc4)CC3)n2)cc1,AC50,Cytochrome P450 3A4,35.5 µM (inconclusive)
COc1ccc(-c2sc3cc(OC)c(OC)cc3c2-c2ccc(O)cc2)cc1,AC50,[7],1.58 µM (active)
CCOC(=O)N/N=C/c1ccc(N(CC)CC)cc1O,IC50,[4],78.5 µM (active)
CCOc1cccc(/C=N/NC(=O)c2cc(C3CC3)[nH]n2)c1O,AC50,[7],5.71 µM (active)
same,AC50,INS1,3.73 µM (active)
Cc1cccc(N/N=C(/C=O)C(=O)c2cccs2)c1,AC50,[7],2.58 µM (active)
CCNC(=S)N/N=C/c1cn(Cc2ccc(F)cc2)c2ccccc12,AC50,[7],24 µM (active)
CCc1cc(/C(Cc2ccccn2)=N\O)c(O)cc1O,IC50,[4],31.6 µM (active)
O=C(Nc1ccccc1)c1cc([N+](=O)[O-])ccc1Cl,AC50,Cytochrome P450 2D6,10 µM (inconclusive)
same,AC50,Cytochrome P450 3A4,25.1 µM (inconclusive)
